The source of these data is patent publication US20160221965A1, “DISUBSTITUTED TRIFLUOROMETHYL PYRIMIDINONES AND THEIR USE” (BAYER PHARMA AKTIENGESELLSCHAFT, priority 2013, published 2016).

Holding throughout (type): cell-based
One test deals with T1, human CCR2 (Homo sapiens, UniProt P41597).
T1 construct: host or cells: Chem-1 cell line
T1 sequence (P41597 1-360 isoform P41597-2): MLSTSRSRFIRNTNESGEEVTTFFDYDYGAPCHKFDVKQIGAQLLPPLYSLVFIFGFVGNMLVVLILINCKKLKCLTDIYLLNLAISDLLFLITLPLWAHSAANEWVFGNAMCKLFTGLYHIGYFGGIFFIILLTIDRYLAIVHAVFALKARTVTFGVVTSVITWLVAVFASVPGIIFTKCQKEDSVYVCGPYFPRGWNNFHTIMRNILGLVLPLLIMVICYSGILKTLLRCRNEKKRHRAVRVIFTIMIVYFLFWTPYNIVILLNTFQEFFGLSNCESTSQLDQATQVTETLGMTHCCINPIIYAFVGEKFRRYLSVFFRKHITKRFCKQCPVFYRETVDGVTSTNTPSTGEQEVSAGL
The test is described as follows: Functional Ca2+ release test (B-1). Conditions: Chem-1 cell line transfected with human CCR2, inhibition of MCP-1 effect, MCP-1 at EC50 (about 5 nM), Fluo-4. As to the method:
The antagonistic action of test substances on CCR2 was determined in a functional Ca^2+ release test. Binding of CCL2/MCP-1 to CCR2 leads to a change in the conformation of the receptor resulting in Gi/Gq protein activation and intracellular signal cascade. This involves, inter alia, an intracellular Ca^2+ release. The test cell used was a Chem-1 cell line transfected with human CCR2 (ChemiSCREEN™ CCR2B Calcium-Optimized FLIPR Cell Line, Merck Millipore).
(§1) The test substances were dissolved in dimethyl sulphoxide (DMSO) at a concentration of 10 mM and serially diluted with DMSO in steps of 1:3.16 for a 10-point dose/activity analysis. According to the desired test concentrations, the substances were pre-diluted in Tyrode with 2 mM CaCl2 and 0.05% BSA.
The cells, cultivated in DMEM high glucose [supplemented with 10% FCS, 1 mM pyruvate, 15 mM HEPES, 500 μg/ml geniticin and non-essential amino acids (NEAA)], were sown at 5000 cells/25 μl in 384 well, μCLEAR/black cell culture plates from Greiner (#781092) and incubated at 37° C. for 24 h. The sowing medium consisted of DMEM high glucose [supplemented with 5% FCS, 1 mM pyruvate, 15 mM HEPES, 50 U/ml penicillin, 50 μg/ml streptomycin and non-essential amino acids (NEAA)]. The medium was then removed and the cells were charged for 60 min at 37° C. with Fluo-4 dye [25 μl Tyrode with 3 μM Fluo-4 AM (1 mM DMSO stock solution), 0.4 mg/ml Brilliant Black, 2.5 mM probenicid, 0.03% Pluronic F-127]. The cells were pre-incubated for 10 min with 10 μl of the test substances diluted in buffer, and 20 μl of agonist solution (MCP-1 in Tyrode with 0.05% BSA) were then added. MCP-1 was employed at the concentration which corresponds to the EC50 which had been determined in a preliminary test (usually about 5 nM). Ca^2+ release was monitored over a period of 120 s in 1 s increments in a proprietary fluorescence imaging reader. The molar concentration of the test substance which caused 50% inhibition of the MCP-1 effect (IC50) was determined using a 4-parameter logistic function (Hill function).

The target in test [1] is T2, murine CCR2 (Mus musculus, UniProt P51683).
T2 construct: host or cells: U2OS β-arrestin cell line
Kind of test: Functional β-arrestin recruiting test with murine MCP-1 (B-2b). Conditions: U2OS β-arrestin cell line transfected with murine CCR2; agonist murine MCP-1. As to the method: (§2) The antagonistic action of test substances on CCR2 was determined in a β-arrestin test. The PathHunter β-arrestin GPCR test system (DiscoveRx Corporation, Ltd.) is a cell-based functional method for detecting binding of β-arrestin to an activated receptor. The molecular basis is a β-galactosidase complementation measured by the enzymatic conversion of a chemiluminescent substrate. The test cell used was a U2OS β-arrestin cell line transfected with murine CCR2 (93-0543C3, DiscoveRx Corporation, Ltd.).
as §1
(§3) The cells, cultivated in MEM Eagle (supplemented with 10% FCS, 50 U/ml of penicillin, 50 μg/ml of streptomycin, 250 μg/ml of hygromycin and 500 μg/ml of geniticin), were sown at 2000 cells/25 μl in 384 well, μCLEAR/black cell culture plates from Greiner (#781092) and incubated at 37° C. for 24 h. The sowing medium consisted of Opti-MEM (supplemented with 1% FCS, 50 U/ml of penicillin and 50 μg/ml of streptomycin). The cells were pre-incubated for 10 min with 10 μl of the test substances diluted in buffer, and 10 μl of agonist solution [human MCP-1 (PeproTech, #300-04) in Tyrode with 0.05% BSA] were then added. The human MCP-1 was employed at the concentration which corresponds to the EC50 which had been determined in a preliminary test (usually about 3 nM). After 90 min of incubation at 37° C., the solution was removed, and recruitment of β-arrestin to CCR2 was detected with the aid of the PathHunter detection reagent (93-001, DiscoveRx Corporation, Ltd.) according to the instructions of the manufacturer. Luminescence was measured after an incubation time of 60 min using a proprietary luminescence imaging measuring instrument. The molar concentration of the test substance which caused 50% inhibition of the MCP-1 effect (IC50) was determined using a 4-parameter logistic function (Hill function).
The test was carried out in a manner identical to that described above under B-2a, but using murine MCP-1 (PeproTech, #250-10) as agonist.
For orientation: Arrestin recruitment assays detect the binding of arrestin to an activated receptor.

Test [2] concerns the target T2, murine CCR2. The test is described as follows: Functional β-arrestin recruiting test with human MCP-1 (B-2a). Conditions: U2OS β-arrestin cell line transfected with murine CCR2; agonist human MCP-1 at EC50 (about 3 nM). As to the method: as §2, §1, §3

T2 sequence (P51683 whole entry): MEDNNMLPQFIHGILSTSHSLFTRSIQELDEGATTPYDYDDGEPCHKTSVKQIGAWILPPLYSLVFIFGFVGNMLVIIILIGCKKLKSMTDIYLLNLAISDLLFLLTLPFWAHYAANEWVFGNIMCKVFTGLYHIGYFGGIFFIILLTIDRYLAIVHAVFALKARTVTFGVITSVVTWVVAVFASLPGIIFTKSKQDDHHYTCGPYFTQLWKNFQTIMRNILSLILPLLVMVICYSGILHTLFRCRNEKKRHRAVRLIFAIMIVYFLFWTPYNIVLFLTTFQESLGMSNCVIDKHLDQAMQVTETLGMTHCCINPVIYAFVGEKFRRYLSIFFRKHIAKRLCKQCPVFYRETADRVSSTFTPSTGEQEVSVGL

As usually defined, the IC50 is the concentration that inhibits the measured activity by half. As for `Nc1nc(C(F)(F)F)c([S+]([O-])c2ccc(Cl)c(Cl)c2)c(=O)[nH]1` (stereo not drawn) [Example 62], the figures for the IC50 on human CCR2 and on murine CCR2 [1] were 0.542 µM and 1.34 µM, respectively.

In the case of `Nc1nc(C(F)(F)F)c(Oc2ccc(Cl)c(OC(F)(F)F)c2)c(=O)[nH]1` [Example 57], the IC50 against human CCR2 came out at 0.0018 µM; at murine CCR2 [1], 2.27 µM.

In the case of `CC(C)Nc1nc(C(F)(F)F)c(Oc2ccc(Cl)c(Cl)c2)c(=O)[nH]1` [Example 65], the IC50 against human CCR2 came out at 0.121 µM; on murine CCR2 [1] it was 1.63 µM.

As to `Cc1ccc(Oc2c(C(F)(F)F)nc(N)[nH]c2=O)cc1Cl` [Example 71], the IC50 at human CCR2 amounted to 0.0024 µM; at murine CCR2 [1], 1.72 µM.

Regarding `CNc1nc(C(F)(F)F)c(Oc2ccc(Cl)c(Cl)c2)c(=O)[nH]1` [Example 66], the figures for the IC50 on human CCR2 and at murine CCR2 [1] were 0.0098 µM and 0.506 µM, respectively.

`Nc1nc(C(F)(F)F)c(Oc2ccc(Cl)cc2)c(=O)[nH]1` [Example 73]: the IC50 came to 0.038 µM on human CCR2 and 2.31 µM at murine CCR2 [1].

Consider `Nc1nc(C(F)(F)F)c(S(=O)(=O)c2ccc(Cl)c(Cl)c2)c(=O)[nH]1` [Example 63], for which the IC50 against human CCR2 came to 0.326 µM; on murine CCR2 [1] it was 2.2 µM.

Regarding `Nc1nc(C(F)(F)F)c(Cc2ccc(Cl)nc2)c(=O)[nH]1` [Example 58], the IC50 was determined as 0.381 µM on human CCR2 and 60 µM on murine CCR2 [1].

Turning to `Nc1nc(C(F)(F)F)c(Cc2cnc(Cl)c(Cl)c2)c(=O)[nH]1` [Example 59], the IC50 against human CCR2 was determined as 0.011 µM; on murine CCR2 [1] it was 7.28 µM.

On to `CC(c1ccc(Cl)c(Cl)c1)c1c(C(F)(F)F)nc(N)[nH]c1=O` (stereo not drawn) [Example 70], for which the IC50 was found to be 0.045 µM at human CCR2 and 3.71 µM on murine CCR2 [1].

`Nc1nc(C(F)(F)F)c(Cc2ccc(Cl)c(Cl)c2)c(=O)[nH]1` [Example 1, 2-Amino-5-(3,4-dichlorobenzyl)-6-(trifluoromethyl)pyrimidin-4(3H)-one]: the IC50 was 0.019 µM against human CCR2, 0.2 µM at murine CCR2 [2] and 0.312 µM at murine CCR2 [1].

For the compound `O=c1[nH]c(C2CCC2)nc(C(F)(F)F)c1Oc1ccc(Cl)c(Cl)c1` [Example 69], the IC50 against human CCR2 amounted to 0.032 µM; at murine CCR2 [1], 0.523 µM.

For the compound `Nc1nc(C(F)(F)F)c(Oc2ccc(C(F)(F)F)cc2)c(=O)[nH]1` [Example 74], the IC50 at human CCR2 came to 0.05 µM; on murine CCR2 [1], 4.16 µM.

As to `Nc1nc(C(F)(F)F)c([S+]([O-])c2ccc(Cl)c(C(F)(F)F)c2)c(=O)[nH]1` (stereo not drawn) [Example 60, 2-Amino-5-{[4-chloro-3-(trifluoromethyl)phenyl]sulphinyl}-6-(trifluoromethyl)pyrimidin-4(3H)-one], the figures for the IC50 on human CCR2 and on murine CCR2 [1] were 0.117 µM and 1.43 µM, respectively.

Take `CCNc1nc(C(F)(F)F)c(Oc2ccc(Cl)c(Cl)c2)c(=O)[nH]1` [Example 64, 5-(3,4-Dichlorophenoxy)-2-(ethylamino)-6-(trifluoromethyl)pyrimidin-4(3H)-one]: the IC50 on human CCR2 turned out to be 0.013 µM; on murine CCR2 [1], 2.7 µM.

With `Nc1nc(C(F)(F)F)c(Oc2ccc(Cl)c(Cl)c2)c(=O)[nH]1` [Example 3, 2-Amino-5-(3,4-dichlorophenoxy)-6-(trifluoromethyl)pyrimidin-4(3H)-one], the IC50 at human CCR2 was 0.0034 µM; on murine CCR2 [2], 0.049 µM; at murine CCR2 [1], 0.28 µM.

`Cc1cc(Oc2c(C(F)(F)F)nc(N)[nH]c2=O)ccc1Cl` [Example 72]: the results for the IC50 against human CCR2 and on murine CCR2 [1] were 0.0015 µM and 0.545 µM, respectively.

For `Nc1nc(C(F)(F)F)c(Oc2cccc(C(F)(F)F)c2)c(=O)[nH]1` [Example 75], the figures for the IC50 against human CCR2 and on murine CCR2 [1] were 0.021 µM and 9.49 µM, respectively.

As to `Nc1nc(C(F)(F)F)c(S(=O)(=O)c2ccc(Cl)c(C(F)(F)F)c2)c(=O)[nH]1` [Example 61], the IC50 was 0.11 µM on human CCR2 and 2.95 µM at murine CCR2 [1].

Take `NC(=O)Cc1nc(C(F)(F)F)c(Oc2ccc(Cl)c(C(F)(F)F)c2)c(=O)[nH]1` [Example 45]: the half-inhibitory concentration (IC50) amounted to 0.008 µM on human CCR2 and 0.13 µM on murine CCR2 [2].

In the case of `Nc1nc(C(F)(F)F)c(Oc2ccc(Cl)c(C(F)(F)F)c2)c(=O)[nH]1` [Example 2, 2-Amino-5-[4-chloro-3-(trifluoromethyl)phenoxy]-6-(trifluoromethyl)pyrimidin-4(3H)-one], the values for the IC50 on human CCR2, at murine CCR2 [2] and at murine CCR2 [1] were 0.0033 µM, 0.023 µM and 0.069 µM, respectively.
